Assay results: patent US20030224074A1, “Composition for the protection and regeneration of nerve cells containing the extract of Scutellaria Radix” (EUGENBIO INC., priority 2001, published 2003)
Entries after “also recorded” stand apart in the source; their conditions may differ.

Experiments:
[1] = tested on: SH-SY5Y; assay: Neurite regeneration in human neuroblastoma SH-SY5Y; type: cell-based; conditions: extract 50 μg/ml, retinoic acid 50 μM
Protocol: Retinoic acid and NGF inducing neurite growth were used as positive control groups.
(§1) PC12 cells and SH-SY5Y cells were incubated in DMEM supplemented with 10% FBS. In order to differentiate the cells, NGF or retinoic acid was treated in a serum-free medium.
(§2) Retinoic acid (50 μM) and NGF (50 ng/ml) inducing neurite growth were used as positive controls.

[2] = tested on: PC12 cells; assay: Neurite regeneration and quantitative comparison of neurites in PC12 cell line; type: cell-based, rat; conditions: NGF 50 ng/ml, 3 days
Protocol: as §1, §2
Subsequently, the length of neurites in each group was measured.
2) Differentiation index was scored as follows: no neurite expression (0), the length of expressed neurites was less than the diameter of cell bodies (1), the length of expressed neurites was similar to the diameter of cell bodies (2), the length of expressed neurites was less than two times as long as the diameter of cell bodies (3), and the length of expressed neurites was more than two times as long as the diameter of cell bodies, or the expressed neurites form synapses together with other nerve cells (4). 200 differentiated cells from each microculture well were defined as one unit, and five units were statistically analyzed.

[3] = tested on: HiB5 cells; assay: Induction of differentiation of HiB5 neuronal stem cells (neurofilament immunostaining, confocal microscope); type: cell-based, white rat
Protocol: A positive control group was treated with bFGF to induce the differentiation into nerve cells.
Cell culture medium was prepared by adding a mixture of 10% FBS (fetal bovine serum), penicillin/streptomycin, glutamine and sodium pyruvate (0.11 g/L) to DMEM. On differentiating at 39 C, another cell culture medium was prepared by adding pyruvate to a serum-free medium (N2, containing DMEM/F12, insulin, transferrin, Putreseine and BSA; Botten Stein & Sato., 1979).
Tissue sections were fixed with 4% paraformaldehyde and cryosected to a thickness of […]. The cryosected tissue sections were stained with nerve cell- or astrocyte-labeled antibody and FITC-labeled secondary antibody before examining under a confocal microscope. In order to stain with nerve cell-labeled antibody, cultured cells were fixed with 4% paraformaldehyde for 20 minutes, permeated in 0.5% NP-40 for 5 minutes, and blocked using 1% BSA solution for 30 minutes. […]
The cultured cells were immunostained with nerve cell-specific labeled molecule, and then neurite growth was observed under a confocal microscope. […] The differentiation degree was measured by double-staining neurites with nerve cell-specific labeled molecule (anti-neurofilament antibody) and FITC-labeled secondary antibody (green), followed by staining cell nuclei with propidium iodide (red).

## CC1=C(/C=C/C(C)=C/C=C/C(C)=C/C(=O)O)C(C)(C)CCC1 [Retinoic acid]
[1]
  Average (%) of differentiated cells: 81.59%

## NGF: Nerve Growth Factor, positive control inducing neurite growth in PC12 cells
[2]
  development of neurites: development of neurites

## bFGF: basic fibroblast growth factor, positive control inducing differentiation of HiB5 cells into nerve cells
[3]; bFGF 20 ng/ml
  cell survival: increased
[3]; extract 50 μg/ml or bFGF 20 ng/ml
  differentiation into nerve cells: induced the differentiation into nerve cells; also recorded: differentiated into nerve cells
